Data set [1] has as its target T1, Raf-1 (c-Raf) / GST-MEK1 (Raf and/or Mek kinase).
T1 construct: Sf9 insect cell lysate containing full length 6his-tagged recombinant human c-Raf; fused on or other part: 6His tag on c-Raf; GST on MEK1
The data set is described as follows: Raf/Mek kinase cascade assay. Format: biochemical, human. The conditions noted are these: Table 4; read-out: Raf/MEK enzyme IC50. How it is done:
Raf/Mek Kinase Cascade Assay
(Specific Activity: ˜200 U/ml). Human Non-active Mek-1-GST and human GST-MAP kinase recombinant proteins produced in E. coli).
Stock Solutions Raf/Mek Cascade Assay:
• 1. Assay Dilution Buffer (ADB): 20 mM MOPS, pH 7.2, 25 mM β-glycerol phosphate, 5 mM EGTA, 1 mM sodium orthovanadate, 1 mM dithiothreitol. • 2. Magnesium/ATP Cocktail: 500 μM cold ATP and 75 mM magnesium chloride in ADB. • 3. Active Kinase: Human Active c-Raf: Use at 0.4 U per assay point. • 4. Non-active GST-MEK1: Use at 0.1 μg per assay point. • 5. Non-active GST-p42 MAP Kinase: Use at 1.0 μg per assay point. Stock Solutions ELISA: • 1. TBST—Tris (50 mM, pH 7.5), NaCl (150 mM), Tween-20 (0.05%) • 2. Superblock (Pierce) • 3. Anti-GST Ab (Pharmacia) • 4. Anti-Phospho MAPK (Sigma) • 5. Anti-Mouse Ab/Europium conjugate (Wallac) Assay Procedure: First Stage: c-Raf Dependent Activation of GST-MEK and GST-MAPK • 1. Add […] of ADB per assay (i.e. per well of a 96 well plate) • 2. Add […] of 0.5 mM cold ATP and 75 mM magnesium chloride in ADB. • 3. Add 2 ml of c-Raf (0.4 U/assay), in conjunction with 1.6 ml non-active MEK1 ([…]). • 4. Add 4 ml of non-active GST-p42 MAP Kinase ([…]). • 5. Incubate for 60 minutes at 30° C. in a shaking incubator. • 6. Transfer this mixture to an anti-GST Ab coated 96 well plate (Nunc Immunosorb plates coated o/n with a-GST, then blocked with Pierce Superblock). • 7. Incubate for 60 minutes at 30° C. in a shaking incubator • 8. Wash 3× with TBST, add Anti-Phospho MAPK (Sigma) (1:3000) • 9. Incubate for 60 minutes at 30° C. in a shaking incubator • 10. Wash 3× with TBST, add Anti-Mouse Ab/Europium conjugate (Wallac) (1:500) • 11. Incubate for 60 minutes at 30° C. in a shaking incubator • 12. Wash 3× with TBST, Read plates in Wallac Victor model Plate Reader. • 13. Collect data analyze in Excel for single point and IC50 determinations.
Single point assay—% inhibition at 10 mg/ml (% Inhibition=1—cpd.treated sample/untreated control). IC50 determinations—done on compounds from single point assays with >80% inhibition. Typically, the Raf/Mek assay is run at compound concentrations from 10 μM to 1 nM in half log dilutions. (% inhibition is determined for each compound concentration). Multiple entries for a given compound indicate that it was tested multiple times. The results obtained measure Raf and/or Mek kinase inhibition, and for representative compounds of this invention are listed in Table 4.

The subject of data set [2] is LoVo cells. The data set is described as follows: Cell based screen for inhibitors of Raf and/or Mek kinase, LoVo. The note with it: Table 4, four days incubation, SRB. Also on record: species or system human. On the procedure: (§1) Cell Based Screen for Inhibitors of Raf and/or Mek Kinase.
(§2) Cell Lines: Human tumor cell lines LoVo which are known to be growth inhibited by low nM concentrations of a reference standard inhibitor of Ras and human adenocarcinoma cell line CaCo-2, which is known to be growth resistant to the same reference compound.
(§3) Cell Media: RPMI 1640 with 10% Fetal Bovine Serum supplemented with L-glutamine and Pennicilin/Streptomycin. • Compounds: Supplied usually as a 10 mM stock in 100% DMSO. • Normal Saline: 150 mM NaCl • Trichloroacetic Acid (TCA): 50% (w/v) in water • Sulforhodamine B (SRB): 0.4% (w/v) in 1% Acetic Acid • Tris Base: 10 mM in water Methods
(§4) Cells are plated at 2000 cells per well for cell line LoVo, 1,750 cells for cell line BXPC3, 1,000 cells for cell line WM266–4 and 1500 cells for cell line CaCo-2 in 96 well plates. Cells are plated in media (200 μl) and allowed to adhere overnight at 37° C. At 24 hours post plating, compounds are added directly at a volume of 0.5 μl. For the qualitative screen (compounds screened at 25 μM) compound is added directly to cells. For the quantitative screen, compound is first diluted in DMSO to generate concentrations of compound or reference standard of: 1, 5, 10 and 25 μM. It is advisable to make the dilutions in an identical 96 well plate so that compounds can be added using a multichannel micropipettor set at 0.5 μl. The cells are then incubated for four days after which the media is removed using a 12 well manifold by first tipping the plate forward at a 45 degree angle and then inserting the manifold in an upright orientation to prevent the tips of the manifold from disturbing cells at the bottom of the plate. 200 μl of normal saline is then added to each well using an 8 well multichannel pipettor, followed by the careful addition of 50 μl of 50% TCA. The plates are then incubated for 2 hours at 4° C., after which the supernatant is removed using the same technique as above and the plated washed twice with 200 μl water. The plates are then air dried and 50 μl of SRB stock solution is carefully added so that the entire bottom of each well is covered. This again can be used using an 8 well multichannel pipettor. The SRB is incubated with fixed cells for 15 minutes at room temperature after which the SRB is removed with the manifold as described above and the plates washed twice with 350 μl of 1% acetic acid per well each time. The plates are then air dried after which the bound SRB is released from protein by the addition of 200 μl of Tris base. Resolubilizing the SRB is aided by placing the plates on a rotator for 15–30 minutes. The absorbance of each well is determined at 550 or 562 nm using a microtiter plate reader.
(§5) Each compound or dilution thereof is performed in triplicate. Outliers are identified by visual inspection of the data. Each plate should have a “0” control (vehicle only).
(§6) Quantitative Assay: A standard curve is constructed by plotting the concentration of compound against the average absorbance calculated at that concentration. A curve is plotted and the concentration at which the curve passes through the 50% the absorbance mark seen in the “0” control well is the IC50 calculated for that compound. Multiple entries for a given compound indicate that it was tested multiple times.

Data set [3] concerns BXPC3 cells. The data set is described as follows: Cell based screen for inhibitors of Raf and/or Mek kinase, BXPC3. The conditions noted are these: Homo sapiens, BXPC-3, 96 h; Table 4; four days incubation, SRB. How it is done: as §1, §2, §3, §4, §5, §6
Data set [4] deals with WM266-4 cells. The data set is described as follows: Cell based screen for inhibitors of Raf and/or Mek kinase, WM266-4. The conditions noted are these: Table 4, four days incubation, SRB. How it is done: as §1, §2, §3, §4, §5, §6

Molecules are shown by their SMILES.

The source of these data is patent US7276519B2, “Thieno[3,2-b]pyridine-6-carbonitriles and thieno[2,3-b]pyridine-5-carbonitriles as protein kinase inhibitors” (Wyeth, priority 2002, dated 2007).

Usually melting point stands for the temperature, or range, at which the solid turns liquid. For the compound `Cn1ccnc1Sc1ccc(Nc2c(C#N)cnc3cc(-c4ccc(CN5CCOCC5)cc4)sc23)cc1Cl` [Example 83, 7-({3-chloro-4-[(1-methyl-1H-imidazol-2-yl)thio]phenyl}amino)-2-[4-(morpholin-4-ylmethyl)phenyl]thieno[3,2-b]pyridine-6-carbonitrile], the melting point lay within 150 to 152 °C. Moreover, in data set [1], the IC50 was determined as 41 nM. In addition, the IC50 in data set [2] (Homo sapiens, LoVo, 96 h) worked out at 36 nM. In data set [2], this compound showed an IC50 of 38 nM. This compound came in with an IC50 in data set [3] greater than 1000 nM. In addition, the IC50 in data set [4] (Homo sapiens, WM 266-4, 96 h) was greater than 1000 nM.

On to `CCN(CC)Cc1ccc(-c2cc3ncc(C#N)c(Nc4ccc(Sc5nccn5C)c(Cl)c4)c3s2)cc1` [Example 98, 7-({3-chloro-4-[(1-methyl-1H-imidazol-2-yl)thio]phenyl}amino)-2-{4-[(diethylamino)methyl]phenyl}thieno[3,2-b]pyridine-6-carbonitrile], for which the melting point lay in the range of 200 to 203 °C. In data set [1], the IC50 came to 5.6 nM. The IC50 in data set [2] (Homo sapiens, LoVo, 96 h) turned out to be 33 nM. In addition, the IC50 in data set [3] was determined as 38 nM. Also, the IC50 in data set [4] (Homo sapiens, WM 266-4, 96 h) is 40 nM.

As for `CN(C)CC#Cc1cc2ncc(C#N)c(Nc3ccc(Sc4nccn4C)c(Cl)c3)c2s1` [Example 91, 7-({3-chloro-4-[(1-methyl-1H-imidazol-2-yl)thio]phenyl}amino)-2-[3-(dimethylamino)prop-1-ynyl]thieno[3,2-b]pyridine-6-carbonitrile], the melting point is 204 to 207 °C. For the same compound, the IC50 in data set [1] was determined as 475 nM. Further, the IC50 in data set [2] (Homo sapiens, LoVo, 96 h) was 64 nM. In data set [3], this compound returned an IC50 of 92 nM. The compound also had an IC50 in data set [4] (Homo sapiens, WM 266-4, 96 h) of 95 nM. Moreover, in data set [4], the IC50 amounted to 85 nM.
